Data as given in patent publication US8940754B2, “10′-fluorinated Vinca alkaloids provide enhanced biological activity against MDR cancer cells” (priority 2010, dated 2015).
Like-named read-outs stand apart in the source and are kept apart here.

Tests used:
Assay in all cases: cells
[1] = test system: L1210; format: cell-based, mouse
[2] = test system: HCT116/VM46; format: cell-based, human
[3] = test system: HCT116; format: cell-based, human
[4] = Table 2C, side-by-side, multiple examinations with several independent samples; read-out: IC50 (nM) L1210
[5] = Table 2C, side-by-side, multiple examinations with several independent samples; read-out: IC50 (nM) HCT116/VM46
[6] = Homo sapiens, HCT-116; Table 1A, C16′-modified anhydrovinblastine analogues; read-out: IC50 (nM) HCT116
[7] = Mus musculus, L1210; Table 1A, C16′-modified anhydrovinblastine analogues; read-out: IC50 (nM) L1210
[8] = Homo sapiens, HCT-116/VM46; Table 1A, C16′-modified anhydrovinblastine analogues; read-out: IC50 (nM) HCT116/VM46
[9] = Homo sapiens, HCT-116; read-out: IC50 (nM) HCT116
[10] = Mus musculus, L1210; read-out: IC50 (nM) L1210
[11] = Homo sapiens, HCT-116/VM46; read-out: IC50 (nM) HCT116/VM46
[12] = Homo sapiens, HCT-116; Table 2A, C10′-substituted anhydrovinblastines, single evaluations; read-out: IC50 (nM) HCT116
[13] = Mus musculus, L1210; Table 2A, C10′-substituted anhydrovinblastines, single evaluations; read-out: IC50 (nM) L1210
[14] = Homo sapiens, HCT-116/VM46; Table 2A, C10′-substituted anhydrovinblastines, single evaluations; read-out: IC50 (nM) HCT116/VM46
[15] = Homo sapiens, HCT-116; Table 2B, C10′-substituted vinblastines, single evaluations; read-out: IC50 (nM) HCT116
[16] = Mus musculus, L1210; Table 2B, C10′-substituted vinblastines, single evaluations; read-out: IC50 (nM) L1210
[17] = Homo sapiens, HCT-116/VM46; Table 2B, C10′-substituted vinblastines, single evaluations; read-out: IC50 (nM) HCT116/VM46

## CC[C@]1(O)C[C@@H]2CN(CCc3c([nH]c4ccccc34)[C@@](C(=O)OC)(c3cc4c(cc3OC)N(C)[C@H]3[C@@](O)(C(=O)OC)[C@H](OC(C)=O)[C@]5(CC)C=CCN6CC[C@]43[C@@H]65)C2)C1 [Compound 1, Vinblastine, reference compound]
[1]; Table 1B, C16′-modified vinblastine analogues; read-out: IC50 (nM) L1210
  IC50: 6 nM
[1]; Table 2B, C10′-substituted vinblastines, single evaluations; read-out: IC50 (nM) L1210
  IC50: 6 nM
[1]; [4]
  IC50: 6 nM
[2]; Table 1B, C16′-modified vinblastine analogues; read-out: IC50 (nM) HCT116/VM46
  IC50: 600 nM
[2]; Table 2B, C10′-substituted vinblastines, single evaluations; read-out: IC50 (nM) HCT116/VM46
  IC50: 600 nM
[2]; [5]
  IC50: 600 nM

## CC[C@]1(O)C[C@H]2CN(CCc3c([nH]c4ccccc34)[C@@](C(=O)OC)(c3cc4c(cc3OC)N(C=O)[C@H]3[C@@](O)(C(=O)OC)[C@H](OC(C)=O)[C@]5(CC)C=CCN6CC[C@]43[C@@H]65)C2)C1 [Compound 2, Vincristine, reference compound]
[3]; Table 2C, side-by-side, multiple examinations with several independent samples; read-out: IC50 (nM) HCT116
  IC50: 7 nM
[1]; [4]
  IC50: 6 nM
[2]; [5]
  IC50: 700 nM

## CCC1=C[C@@H]2CN(CCc3c([nH]c4ccccc34)[C@@](C(=O)OC)(c3cc4c(cc3OC)N(C)[C@H]3[C@@](O)(C(=O)OC)[C@H](OC(C)=O)[C@]5(CC)C=CCN6CC[C@]43[C@@H]65)C2)C1 [Compound 4a, anhydrovinblastine, reference compound]
[3]; Table 1A, C16′-modified anhydrovinblastine analogues; read-out: IC50 (nM) HCT116
  IC50: 75 nM
[3]; Table 2A, C10′-substituted anhydrovinblastines, single evaluations; read-out: IC50 (nM) HCT116
  IC50: 75 nM
[1]; Table 1A, C16′-modified anhydrovinblastine analogues; read-out: IC50 (nM) L1210
  IC50: 65 nM
[1]; Table 2A, C10′-substituted anhydrovinblastines, single evaluations; read-out: IC50 (nM) L1210
  IC50: 65 nM
[2]; Table 1A, C16′-modified anhydrovinblastine analogues; read-out: IC50 (nM) HCT116/VM46
  IC50: 600 nM
[2]; Table 2A, C10′-substituted anhydrovinblastines, single evaluations; read-out: IC50 (nM) HCT116/VM46
  IC50: 600 nM

## CCOC(=O)[C@]1(c2cc3c(cc2OC)N(C)C2C(O)(C(=O)OC)[C@H](OC(C)=O)[C@]4(CC)C=CCN5CC[C@]32[C@@H]54)C[C@@H]2C=C(CC)CN(CCc3c1[nH]c1ccccc31)C2 (stereo partly drawn) [Compound 5a]
[3]; [6]
  IC50: 640 nM
[1]; [7]
  IC50: 620 nM
[2]; [8]
  IC50: 4100 nM

## CCOC(=O)[C@]1(c2cc3c(cc2OC)N(C)C2C(O)(C(=O)OC)[C@H](OC(C)=O)[C@]4(CC)C=CCN5CC[C@]32[C@@H]54)C[C@H]2CN(CCc3c1[nH]c1ccccc31)C[C@](O)(CC)C2 (stereo partly drawn) [Compound 5b]
[3]; [9]
  IC50: 70 nM
[1]; [10]
  IC50: 60 nM
[2]; [11]
  IC50: 830 nM

## CCC1=C[C@@H]2CN(CCc3c([nH]c4ccccc34)[C@@](C#N)(c3cc4c(cc3OC)N(C)C3C(O)(C(=O)OC)[C@H](OC(C)=O)[C@]5(CC)C=CCN6CC[C@]43[C@@H]65)C2)C1 (stereo partly drawn) [Compound 6a]
[3]; [6]
  IC50: 6100 nM
[1]; [7]
  IC50: 6500 nM
[2]; [8]
  IC50: 6800 nM

## CC[C@]1(O)C[C@@H]2CN(CCc3c([nH]c4ccccc34)[C@@](C#N)(c3cc4c(cc3OC)N(C)C3C(O)(C(=O)OC)[C@H](OC(C)=O)[C@]5(CC)C=CCN6CC[C@]43[C@@H]65)C2)C1 (stereo partly drawn) [Compound 6b]
[3]; [9]
  IC50: 670 nM
[1]; [10]
  IC50: 630 nM
[2]; [11]
  IC50: 7400 nM

## CCC1=C[C@@H]2CN(CCc3c([nH]c4ccccc34)[C@@](C(N)=O)(c3cc4c(cc3OC)N(C)C3C(O)(C(=O)OC)[C@H](OC(C)=O)[C@]5(CC)C=CCN6CC[C@]43[C@@H]65)C2)C1 (stereo partly drawn) [Compound 7a]
[3]; [6]
  IC50: > 10000 nM
[1]; [7]
  IC50: > 10000 nM
[2]; [8]
  IC50: > 10000 nM

## CC[C@]1(O)C[C@@H]2CN(CCc3c([nH]c4ccccc34)[C@@](C(N)=O)(c3cc4c(cc3OC)N(C)C3C(O)(C(=O)OC)[C@H](OC(C)=O)[C@]5(CC)C=CCN6CC[C@]43[C@@H]65)C2)C1 (stereo partly drawn) [Compound 7b]
[3]; [9]
  IC50: > 10000 nM
[1]; [10]
  IC50: > 10000 nM
[2]; [11]
  IC50: > 10000 nM

## CCC1=C[C@@H]2CN(CCc3c([nH]c4ccccc34)[C@@](C=O)(c3cc4c(cc3OC)N(C)C3C(O)(C(=O)OC)[C@H](OC(C)=O)[C@]5(CC)C=CCN6CC[C@]43[C@@H]65)C2)C1 (stereo partly drawn) [Compound 8a]
[3]; [6]
  IC50: 7000 nM
[1]; [7]
  IC50: 6300 nM
[2]; [8]
  IC50: > 10000 nM

## CC[C@]1(O)C[C@@H]2CN(CCc3c([nH]c4ccccc34)[C@@](CO)(c3cc4c(cc3OC)N(C)C3C(O)(C(=O)OC)[C@H](OC(C)=O)[C@]5(CC)C=CCN6CC[C@]43[C@@H]65)C2)C1 (stereo partly drawn) [Compound 11b]
[3]; [9]
  IC50: 5800 nM
[1]; [10]
  IC50: 6500 nM
[2]; [11]
  IC50: > 10000 nM

## CCC1=C[C@@H]2CN(CCc3c([nH]c4ccc(C#N)cc34)[C@@](C(=O)OC)(c3cc4c(cc3OC)N(C)C3C(O)(C(=O)OC)[C@H](OC(C)=O)[C@]5(CC)C=CCN6CC[C@]43[C@@H]65)C2)C1 (stereo partly drawn) [Compound 15a, 10′-cyanoanhydrovinblastine]
[3]; Homo sapiens, HCT-116, read-out: IC50 (nM) HCT116
  IC50: 70 nM
[1]; Mus musculus, L1210, read-out: IC50 (nM) L1210
  IC50: 65 nM
[2]; Homo sapiens, HCT-116/VM46, read-out: IC50 (nM) HCT116/VM46
  IC50: 920 nM

## CCC1=C[C@@H]2CN(CCc3c([nH]c4ccc(I)cc34)[C@@](C(=O)OC)(c3cc4c(cc3OC)N(C)C3C(O)(C(=O)OC)[C@H](OC(C)=O)[C@]5(CC)C=CCN6CC[C@]43[C@@H]65)C2)C1 (stereo partly drawn) [Compound 16a, 10′-iodoanhydrovinblastine]
[3]; [12]
  IC50: 600 nM
[1]; [13]
  IC50: 620 nM
[2]; [14]
  IC50: 1800 nM

## CC[C@]1(O)C[C@@H]2CN(CCc3c([nH]c4ccc(I)cc34)[C@@](C(=O)OC)(c3cc4c(cc3OC)N(C)C3C(O)(C(=O)OC)[C@H](OC(C)=O)[C@]5(CC)C=CCN6CC[C@]43[C@@H]65)C2)C1 (stereo partly drawn) [Compound 16b, 10′-iodovinblastine]
[3]; [15]
  IC50: 60 nM
[1]; [16]
  IC50: 55 nM
[2]; [17]
  IC50: 840 nM

## CCC1=C[C@@H]2CN(CCc3c([nH]c4ccc(Br)cc34)[C@@](C(=O)OC)(c3cc4c(cc3OC)N(C)C3C(O)(C(=O)OC)[C@H](OC(C)=O)[C@]5(CC)C=CCN6CC[C@]43[C@@H]65)C2)C1 (stereo partly drawn) [Compound 17a, 10′-bromoanhydrovinblastine]
[3]; [12]
  IC50: 70 nM
[1]; [13]
  IC50: 65 nM
[2]; [14]
  IC50: 860 nM

## CC[C@]1(O)C[C@@H]2CN(CCc3c([nH]c4ccc(Br)cc34)[C@@](C(=O)OC)(c3cc4c(cc3OC)N(C)C3C(O)(C(=O)OC)[C@H](OC(C)=O)[C@]5(CC)C=CCN6CC[C@]43[C@@H]65)C2)C1 (stereo partly drawn) [Compound 17b, 10′-bromo-vinblastine]
[3]; [15]
  IC50: 8.6 nM
[1]; [16]
  IC50: 8 nM
[2]; [17]
  IC50: 270 nM

## CCC1=C[C@@H]2CN(CCc3c([nH]c4ccc(Cl)cc34)[C@@](C(=O)OC)(c3cc4c(cc3OC)N(C)C3C(O)(C(=O)OC)[C@H](OC(C)=O)[C@]5(CC)C=CCN6CC[C@]43[C@@H]65)C2)C1 (stereo partly drawn) [Compound 18a, 10′-chloroanhydrovinblastine]
[3]; [12]
  IC50: 70 nM
[1]; [13]
  IC50: 60 nM
[2]; [14]
  IC50: 800 nM

## CC[C@]1(O)C[C@@H]2CN(CCc3c([nH]c4ccc(Cl)cc34)[C@@](C(=O)OC)(c3cc4c(cc3OC)N(C)C3C(O)(C(=O)OC)[C@H](OC(C)=O)[C@]5(CC)C=CCN6CC[C@]43[C@@H]65)C2)C1 (stereo partly drawn) [Compound 18b, 10′-chlorovinblastine]
[3]; [15]
  IC50: 7.6 nM
[1]; [16]
  IC50: 6.2 nM
[2]; [17]
  IC50: 720 nM

## CCC1=C[C@@H]2CN(CCc3c([nH]c4ccc(SC)cc34)[C@@](C(=O)OC)(c3cc4c(cc3OC)N(C)C3C(O)(C(=O)OC)[C@H](OC(C)=O)[C@]5(CC)C=CCN6CC[C@]43[C@@H]65)C2)C1 (stereo partly drawn) [Compound 20a, 10′-thiomethylanhydrovinblastine]
[3]; [12]
  IC50: 85 nM
[1]; [13]
  IC50: 60 nM
[2]; [14]
  IC50: 770 nM

## CC[C@]1(O)C[C@@H]2CN(CCc3c([nH]c4ccc(SC)cc34)[C@@](C(=O)OC)(c3cc4c(cc3OC)N(C)C3C(O)(C(=O)OC)[C@H](OC(C)=O)[C@]5(CC)C=CCN6CC[C@]43[C@@H]65)C2)C1 (stereo partly drawn) [Compound 20b, 10′-thiomethylvinblastine]
[3]; [15]
  IC50: 35 nM
[1]; [16]
  IC50: 45 nM
[2]; [17]
  IC50: 740 nM

## CCC1=C[C@@H]2CN(CCc3c([nH]c4ccc(C)cc34)[C@@](C(=O)OC)(c3cc4c(cc3OC)N(C)C3C(O)(C(=O)OC)[C@H](OC(C)=O)[C@]5(CC)C=CCN6CC[C@]43[C@@H]65)C2)C1 (stereo partly drawn) [Compound 21a, 10′-methylanhydrovinblastine]
[3]; [12]
  IC50: 65 nM
[1]; [13]
  IC50: 65 nM
[2]; [14]
  IC50: 640 nM

## CC[C@]1(O)C[C@@H]2CN(CCc3c([nH]c4ccc(C)cc34)[C@@](C(=O)OC)(c3cc4c(cc3OC)N(C)C3C(O)(C(=O)OC)[C@H](OC(C)=O)[C@]5(CC)C=CCN6CC[C@]43[C@@H]65)C2)C1 (stereo partly drawn) [Compound 21b, 10′-methylvinblastine]
[3]; [15]
  IC50: 7.8 nM
[1]; [16]
  IC50: 7.8 nM
[2]; [17]
  IC50: 600 nM

## CCC1=C[C@@H]2CN(CCc3c([nH]c4ccc(OC)cc34)[C@@](C(=O)OC)(c3cc4c(cc3OC)N(C)C3C(O)(C(=O)OC)[C@H](OC(C)=O)[C@]5(CC)C=CCN6CC[C@]43[C@@H]65)C2)C1 (stereo partly drawn) [Compound 22a, 10′-methoxyanhydrovinblastine]
[3]; [12]
  IC50: 640 nM
[1]; [13]
  IC50: 550 nM
[2]; [14]
  IC50: 5500 nM
